Assays:
[1] = target: Glycine receptor subunit alpha-3 (Homo sapiens) (UniProt O75311); assay: Positive allosteric modulation of recombinant human glycine receptor alpha3 expressed in CHOK1 cells assessed as potentiation of glycine-induced current at 20 uM at -60 mV holding potential by whole cell patch-clamp method relative to glycine; assay type: cell-based
[2] = target: T1, GABA-A receptor; alpha-2/beta-3/gamma-2 (Homo sapiens) (UniProt P18507+P28472+P47869); assay: Positive allosteric modulation of recombinant human GABAA receptor alpha2beta3gamma2 expressed in CHOK1 cells assessed as potentiation of GABA-induced current at 10 uM at -60 mV holding potential by whole cell patch-clamp method relative to GABA; assay type: cell-based
[3] = target: T2, GABA-A receptor; alpha-1/beta-3/gamma-2 (Homo sapiens) (UniProt P14867+P18507+P28472); assay: Positive allosteric modulation of recombinant human GABAA receptor alpha1beta3gamma2 expressed in CHOK1 cells assessed as potentiation of GABA-induced current at 10 uM at -60 mV holding potential by whole cell patch-clamp method relative to GABA; assay type: cell-based
[4] = target: Glycine receptor subunit alpha-3 (Homo sapiens, UniProt O75311); assay: Positive allosteric modulation of recombinant human glycine receptor alpha3 expressed in CHOK1 cells at -60 mV holding potential by whole cell patch-clamp method; assay type: cell-based
[5] = target: T3, Glycine receptor subunit alpha-1 (Homo sapiens) (UniProt P23415); assay: Positive allosteric modulation of recombinant human glycine receptor alpha1 expressed in CHOK1 cells assessed as potentiation of glycine-induced current at 10 uM at -60 mV holding potential by whole cell patch-clamp method relative to glycine; assay type: cell-based
T3 sequence (whole entry): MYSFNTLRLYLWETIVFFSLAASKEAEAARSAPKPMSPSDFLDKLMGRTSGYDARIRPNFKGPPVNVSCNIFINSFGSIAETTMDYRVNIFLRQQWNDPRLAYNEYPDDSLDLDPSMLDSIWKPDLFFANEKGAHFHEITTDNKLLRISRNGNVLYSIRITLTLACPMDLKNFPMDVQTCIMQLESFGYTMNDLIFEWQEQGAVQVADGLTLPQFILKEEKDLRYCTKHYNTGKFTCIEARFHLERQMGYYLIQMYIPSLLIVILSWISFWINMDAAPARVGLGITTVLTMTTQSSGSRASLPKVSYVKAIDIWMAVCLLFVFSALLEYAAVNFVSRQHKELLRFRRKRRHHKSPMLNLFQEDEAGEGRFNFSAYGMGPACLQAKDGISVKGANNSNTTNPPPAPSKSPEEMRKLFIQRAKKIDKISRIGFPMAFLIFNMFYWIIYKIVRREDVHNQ

[6] = target: T4, GABA A receptor alpha-2/beta-2/gamma-2 (Homo sapiens, UniProt P18507+P47869+P47870); assay: Agonist activity at recombinant human GABAA receptor alpha2beta2gamma2L expressed in Xenopus laevis oocytes incubated for 30 secs by electrophysiological method; assay type: cell-based
T4 sequence (P47870 whole entry): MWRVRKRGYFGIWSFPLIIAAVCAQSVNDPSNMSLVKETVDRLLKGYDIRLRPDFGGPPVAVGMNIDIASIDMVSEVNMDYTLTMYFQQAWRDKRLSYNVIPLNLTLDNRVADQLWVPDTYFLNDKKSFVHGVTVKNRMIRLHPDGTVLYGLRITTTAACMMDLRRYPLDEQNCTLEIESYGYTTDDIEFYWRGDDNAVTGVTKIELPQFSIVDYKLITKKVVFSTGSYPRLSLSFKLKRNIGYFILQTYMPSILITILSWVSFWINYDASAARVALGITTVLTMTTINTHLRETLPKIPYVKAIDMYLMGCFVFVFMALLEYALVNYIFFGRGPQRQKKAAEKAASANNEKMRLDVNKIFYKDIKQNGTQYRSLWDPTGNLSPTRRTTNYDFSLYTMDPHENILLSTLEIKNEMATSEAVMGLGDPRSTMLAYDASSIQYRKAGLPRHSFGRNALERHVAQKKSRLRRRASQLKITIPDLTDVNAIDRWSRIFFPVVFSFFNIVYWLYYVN
T4 sequence (P18507 whole entry): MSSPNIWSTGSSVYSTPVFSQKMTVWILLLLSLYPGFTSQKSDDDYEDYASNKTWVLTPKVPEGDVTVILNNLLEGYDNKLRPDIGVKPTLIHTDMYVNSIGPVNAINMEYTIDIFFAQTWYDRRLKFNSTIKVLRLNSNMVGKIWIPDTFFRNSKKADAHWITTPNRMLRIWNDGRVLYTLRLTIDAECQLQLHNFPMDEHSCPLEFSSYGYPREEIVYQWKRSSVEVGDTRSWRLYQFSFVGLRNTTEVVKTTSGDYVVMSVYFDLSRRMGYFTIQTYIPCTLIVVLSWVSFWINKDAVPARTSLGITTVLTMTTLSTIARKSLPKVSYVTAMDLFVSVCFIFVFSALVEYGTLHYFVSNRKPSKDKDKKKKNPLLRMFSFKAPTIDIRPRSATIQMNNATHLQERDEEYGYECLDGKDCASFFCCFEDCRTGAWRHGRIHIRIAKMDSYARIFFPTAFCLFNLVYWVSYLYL
T4 sequence (P47869 whole entry): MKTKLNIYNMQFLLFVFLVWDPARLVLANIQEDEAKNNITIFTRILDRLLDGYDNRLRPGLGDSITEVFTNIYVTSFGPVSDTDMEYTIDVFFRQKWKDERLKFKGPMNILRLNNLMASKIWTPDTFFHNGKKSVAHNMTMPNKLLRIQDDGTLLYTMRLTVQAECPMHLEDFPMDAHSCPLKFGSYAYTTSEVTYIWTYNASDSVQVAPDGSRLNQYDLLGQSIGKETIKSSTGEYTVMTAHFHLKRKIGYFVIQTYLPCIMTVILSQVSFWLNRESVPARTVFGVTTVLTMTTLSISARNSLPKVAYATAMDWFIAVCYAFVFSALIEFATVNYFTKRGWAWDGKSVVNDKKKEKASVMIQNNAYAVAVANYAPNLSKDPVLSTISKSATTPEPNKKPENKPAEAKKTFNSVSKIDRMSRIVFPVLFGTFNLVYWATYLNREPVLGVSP

[7] = target: GABA A receptor alpha-1/beta-1/gamma-2 (Homo sapiens, UniProt P14867+P18505+P18507); assay: Agonist activity at recombinant human GABAA receptor alpha1beta1gamma2L expressed in Xenopus laevis oocytes incubated for 30 secs by electrophysiological method; assay type: cell-based
[8] = target: T5, GABA-A receptor; alpha-1/beta-2/gamma-2 (Homo sapiens, UniProt P14867+P18507+P47870); assay: Agonist activity at recombinant human GABAA receptor alpha1beta2gamma2L expressed in Xenopus laevis oocytes incubated for 30 secs by electrophysiological method; assay type: cell-based
T5 sequence (P14867 whole entry): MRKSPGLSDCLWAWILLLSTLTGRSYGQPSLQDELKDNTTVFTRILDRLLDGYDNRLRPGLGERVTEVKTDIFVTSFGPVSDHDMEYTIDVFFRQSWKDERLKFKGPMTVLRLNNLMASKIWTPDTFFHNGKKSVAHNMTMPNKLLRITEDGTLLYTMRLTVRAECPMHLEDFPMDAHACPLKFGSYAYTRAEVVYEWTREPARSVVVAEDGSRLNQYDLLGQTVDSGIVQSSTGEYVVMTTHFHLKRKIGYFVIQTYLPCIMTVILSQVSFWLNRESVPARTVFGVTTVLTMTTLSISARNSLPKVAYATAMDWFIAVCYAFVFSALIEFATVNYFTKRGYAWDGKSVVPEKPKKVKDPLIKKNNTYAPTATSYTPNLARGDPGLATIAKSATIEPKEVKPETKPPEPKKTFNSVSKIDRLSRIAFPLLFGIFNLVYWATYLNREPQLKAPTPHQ
T5 sequence (P47870 whole entry): as the sequence (P47870 whole entry) above
T5 sequence (P18507 whole entry): as the sequence (P18507 whole entry) above

[9] = target: Gamma-aminobutyric acid receptor subunit alpha-1 (Rattus norvegicus) (UniProt P62813); assay: Agonist activity at GABAA receptor in Sprague-Dawley rat forebrain membranes assessed as enhancement of [3H]muscimol binding at 1 to 100 uM after 2 hrs by radiometric analysis relative to control; conditions: Membrane
[10] = target: Gamma-aminobutyric acid receptor subunit alpha-1 (Rattus norvegicus, UniProt P62813); assay: Agonist activity at GABAA receptor in Sprague-Dawley rat forebrain membranes assessed as enhancement of [3H]muscimol binding after 2 hrs by radiometric analysis; parameters: species or system Membrane
[11] = target: Gamma-aminobutyric acid receptor subunit alpha-4/beta-2/delta (Homo sapiens, UniProt O14764+P47870+P48169); assay: Positive allosteric modulation of GABAA receptor alpha4beta2delta (unknown origin); assay type: protein-complex assay
[12] = target: T5, GABA-A receptor; alpha-1/beta-2/gamma-2; assay: Positive allosteric modulation of GABAA receptor alpha1beta2gamma2 (unknown origin); assay type: protein-complex assay
[13] = target: GABA A receptor alpha-5/beta-3/gamma-2 (Rattus norvegicus, UniProt P18508+P19969+P63079); assay: Displacement of [3H]-flunitrazepam from recombinant rat GABAA receptor alpha5beta3gamma2S expressed in HEK293 cell membranes after 90 mins by liquid scintillation counting method
[14] = target: Gamma-aminobutyric acid receptor subunit alpha-3/beta-3/gamma-2 (Rattus norvegicus, UniProt P18508+P20236+P63079); assay: Displacement of [3H]-flunitrazepam from recombinant rat GABAA receptor alpha3beta3gamma2S expressed in HEK293 cell membranes after 90 mins by liquid scintillation counting method
[15] = target: Gamma-aminobutyric acid receptor subunit alpha-1/beta-3/gamma-2 (Rattus norvegicus, UniProt P18508+P62813+P63079); assay: Displacement of [3H]-flunitrazepam from recombinant rat GABAA receptor alpha1beta3gamma2S expressed in HEK293 cell membranes after 90 mins by liquid scintillation counting method
[16] = target: Gamma-aminobutyric acid receptor subunit alpha-2/beta-3/gamma-2 (Rattus norvegicus, UniProt P18508+P23576+P63079); assay: Displacement of [3H]-flunitrazepam from recombinant rat GABAA receptor alpha2beta3gamma2S expressed in HEK293 cell membranes after 90 mins by liquid scintillation counting method
[17] = target: GABA A receptor alpha-3/beta-2/gamma-2 (Homo sapiens) (UniProt P47870+P18507+P34903); assay: Positive allosteric modulation of recombinant wild type GABAA receptor alpha3beta2gamma2S (unknown origin) expressed in HEK293 cells assessed as potentiation of GABA induced chloride current response relative to 30 uM GABA; assay type: cell-based
[18] = target: T4, GABA A receptor alpha-2/beta-2/gamma-2; assay: Positive allosteric modulation of recombinant wild type GABAA receptor alpha2beta2gamma2S (unknown origin) expressed in HEK293 cells assessed as potentiation of GABA induced chloride current response treated every 30 secs measured for 2 to 3 secs by patch clamp method; assay type: cell-based
[19] = target: GABA A receptor alpha-3/beta-2/gamma-2 (Homo sapiens, UniProt P18507+P34903+P47870); assay: Positive allosteric modulation of recombinant wild type GABAA receptor alpha3beta2gamma2S (unknown origin) expressed in HEK293 cells assessed as potentiation of GABA induced chloride current response treated every 30 secs measured for 2 to 3 secs by patch clamp method; assay type: cell-based
Sequence of GABA A receptor alpha-3/beta-2/gamma-2 (P47870 whole entry): as the sequence (P47870 whole entry) above
Sequence of GABA A receptor alpha-3/beta-2/gamma-2 (P18507 whole entry): as the sequence (P18507 whole entry) above
Sequence of GABA A receptor alpha-3/beta-2/gamma-2 (P34903 whole entry): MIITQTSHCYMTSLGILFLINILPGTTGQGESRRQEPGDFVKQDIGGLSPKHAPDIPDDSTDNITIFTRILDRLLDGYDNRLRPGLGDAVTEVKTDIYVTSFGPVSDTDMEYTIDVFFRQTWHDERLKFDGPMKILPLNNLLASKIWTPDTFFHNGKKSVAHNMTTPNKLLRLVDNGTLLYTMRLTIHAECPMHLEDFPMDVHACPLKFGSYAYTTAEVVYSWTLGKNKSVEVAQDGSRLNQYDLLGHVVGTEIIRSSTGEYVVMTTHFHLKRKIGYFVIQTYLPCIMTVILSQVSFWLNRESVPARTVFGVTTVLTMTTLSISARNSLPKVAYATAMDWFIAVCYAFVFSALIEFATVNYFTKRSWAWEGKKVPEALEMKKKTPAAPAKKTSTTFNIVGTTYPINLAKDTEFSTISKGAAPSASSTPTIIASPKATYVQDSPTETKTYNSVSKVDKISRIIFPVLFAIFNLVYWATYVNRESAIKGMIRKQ

[20] = target: GABA A receptor alpha-2/beta-2/gamma-2 (Homo sapiens) (UniProt P47870+P18507+P47869); assay: Positive allosteric modulation of recombinant wild type GABAA receptor alpha2beta2gamma2S (unknown origin) expressed in HEK293 cells assessed as potentiation of GABA induced chloride current response relative to GABA; assay type: cell-based
HEK293 = assay: Positive allosteric modulation of recombinant wild type GABAA receptor alpha4beta2gamma2S (unknown origin) expressed in HEK293 cells assessed as potentiation of GABA induced chloride current response relative to GABA; assay type: cell-based; conditions: Homo sapiens
[21] = Positive allosteric modulation of recombinant wild type GABAA receptor alpha4beta2gamma2S (unknown origin) expressed in HEK293 cells assessed as potentiation of GABA induced chloride current response treated every 30 secs measured for 2 to 3 secs by patch clamp method; assay type: cell-based; conditions: Homo sapiens
[22] = target: T2, GABA-A receptor; alpha-1/beta-3/gamma-2 (Homo sapiens); assay: Positive allosteric modulation of recombinant human GABAA receptor alpha1beta3gamma2 expressed in Xenopus oocytes assessed as potentiation of GABA induced chloride current response relative to GABA; assay type: cell-based
[23] = target: GABA-A receptor; alpha-6/beta-3/gamma-2 (Homo sapiens) (UniProt P18507+P28472+Q16445); assay: Positive allosteric modulation of recombinant human GABAA receptor alpha6beta3gamma2 expressed in Xenopus oocytes assessed as potentiation of GABA induced chloride currents relative to GABA; assay type: cell-based
[24] = target: T6, GABA A receptor alpha-4/beta-3/gamma-2 (Homo sapiens, UniProt P18507+P28472+P48169); assay: Positive allosteric modulation of recombinant human GABAA receptor alpha4beta3gamma2 expressed in Xenopus laevis oocytes assessed as potentiation of GABA induced chloride currents relative to GABA; assay type: cell-based
[25] = target: GABA-A receptor; alpha-5/beta-3/gamma-2 (Homo sapiens, UniProt P18507+P28472+P31644); assay: Displacement of [3H]Ro15-1788 from human GABAA receptor alpha5beta3gamma2 expressed in LTK cells […]; assay type: cell-based
[26] = target: GABA-A receptor; alpha-2/beta-3/gamma-2 (Homo sapiens, UniProt P18507+P28472+P47869); assay: Displacement of [3H]Ro15-1788 from human GABAA receptor alpha2beta3gamma2 expressed in LTK cells […]; assay type: cell-based
[27] = target: T6, GABA A receptor alpha-4/beta-3/gamma-2; assay: Displacement of [3H][…] from human GABAA receptor alpha4beta3gamma2 expressed in LTK cells […]; assay type: cell-based
[28] = target: T1, GABA-A receptor; alpha-2/beta-3/gamma-2 (Homo sapiens); assay: Positive allosteric modulation of recombinant human GABAA receptor alpha2beta3gamma2 expressed in Xenopus oocytes assessed as potentiation of GABA induced chloride currents relative to GABA; assay type: cell-based
[29] = target: GABA-A receptor; alpha-3/beta-3/gamma-2 (Homo sapiens) (UniProt P18507+P28472+P34903); assay: Positive allosteric modulation of recombinant human GABAA receptor alpha3beta3gamma2 expressed in Xenopus laevis oocytes assessed as potentiation of GABA induced chloride currents relative to GABA; assay type: cell-based
[30] = target: GABA-A receptor; alpha-5/beta-3/gamma-2 (Homo sapiens) (UniProt P18507+P28472+P31644); assay: Positive allosteric modulation of recombinant human GABAA receptor alpha5beta3gamma2 expressed in Xenopus laevis oocytes assessed as potentiation of GABA induced chloride currents relative to GABA; assay type: cell-based
[31] = Positive allosteric modulation of wild-type C57BL/6J mouse mitral cell GABAA receptor at 9 to 10 mV holding potential by whole cell patch-clamp method
[32] = target: T7, Glycine receptor subunit alpha-1 (Homo sapiens, UniProt P23415); assay: Positive allosteric modulation of recombinant human glycine receptor alpha1 expressed in HEK293 cells assessed as increase in glycine-induced current at -60 mV holding potential by whole cell patch-clamp method; assay type: cell-based
T7 sequence (P23415 whole entry): T3 sequence (whole entry)

[33] = target: Glycine receptor subunit alpha-2/beta (Homo sapiens, UniProt P23416+P48167); assay: Inhibition of recombinant human glycine receptor alpha2beta expressed in HEK293 cells; assay type: cell-based
[34] = target: Glycine receptor alpha-3/beta (Homo sapiens, UniProt O75311+P48167); assay: Inhibition of recombinant human glycine receptor alpha3beta expressed in HEK293 cells; assay type: cell-based
[35] = target: Glycine receptor (alpha-1/beta) (Homo sapiens, UniProt P23415+P48167); assay: Inhibition of recombinant human glycine receptor alpha1beta expressed in HEK293 cells; assay type: cell-based
Sequence of Glycine receptor (alpha-1/beta) (P48167 whole entry, one chain of several): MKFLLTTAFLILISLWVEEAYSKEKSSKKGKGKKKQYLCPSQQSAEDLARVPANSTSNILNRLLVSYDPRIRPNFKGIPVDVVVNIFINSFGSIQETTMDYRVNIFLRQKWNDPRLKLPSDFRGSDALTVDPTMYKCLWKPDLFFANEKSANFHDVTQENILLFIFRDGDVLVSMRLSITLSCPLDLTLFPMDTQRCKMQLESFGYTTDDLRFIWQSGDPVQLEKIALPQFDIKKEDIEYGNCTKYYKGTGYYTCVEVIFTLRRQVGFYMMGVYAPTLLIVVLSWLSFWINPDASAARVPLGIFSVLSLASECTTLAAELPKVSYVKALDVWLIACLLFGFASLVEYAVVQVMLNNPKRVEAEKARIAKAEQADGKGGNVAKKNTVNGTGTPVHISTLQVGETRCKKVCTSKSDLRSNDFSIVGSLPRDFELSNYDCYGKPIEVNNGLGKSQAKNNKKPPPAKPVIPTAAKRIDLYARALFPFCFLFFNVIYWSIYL

[36] = target: T3, Glycine receptor subunit alpha-1 (Homo sapiens); assay: Positive allosteric modulation of recombinant human glycine receptor alpha1 expressed in HEK293 cells assessed as potentiation of glycine-induced current at -60 mV holding potential by whole cell patch-clamp method relative to 10 uM glycine; assay type: cell-based

O=S(=O)(NCCOc1cccc2cccnc12)c1ccc(F)cc1
fold change (FC) [1]: 28
fold change (FC) [2]: 0
fold change (FC) [3]: 0
EC50 [4]: 3900 nM
fold change (FC) [5]: 39.7

Oc1c(Br)cc(Br)cc1-c1cc(Br)cc(Br)c1O [BROMOPHENE]
EC50 [6]: 1080 nM
EC50 [7]: 320 nM
EC50 [8]: 720 nM

CCCCNC(=O)c1cc(-c2ccc(F)cc2F)ccc1O
Emax [9]: 56%
EC50 [10]: 15000 nM

C[C@@]1(O)CC[C@H]2[C@H](CC[C@@H]3[C@@H]2CC[C@]2(C)[C@@H](C(=O)Cn4cc(C#N)cn4)CC[C@@H]32)C1 [ZURANOLONE]
EC50 [11]: 163 nM
EC50 [12]: 374 nM

C#Cc1ccc2c(c1)C(c1ccccc1F)=N[C@H](C)c1c(C(=O)NC)ncn1-2
Ki [13]: 55 nM
Ki [14]: 660 nM
Ki [15]: 850 nM
Ki [16]: 360 nM

COc1ccc(C(=O)/C=C/c2cc(OC)ccc2O)cc1
fold change (FC) [17]: 19.6
EC50 [18]: 7600 nM
EC50 [19]: 17700 nM
fold change (FC) [20]: 13.6
fold change (FC) (HEK293): 6.2
EC50 [21]: 8100 nM

COc1ccc(-n2nc3c4cc(Cl)ccc4[nH]cc-3c2=O)cc1
fold change (FC) [22]: 10
fold change (FC) [23]: 20
fold change (FC) [24]: 2
Ki [25]: 0.3 nM
Ki [26]: > 10000 nM
Ki [27]: > 10000 nM
fold change (FC) [28]: 8
fold change (FC) [29]: 5
fold change (FC) [30]: 2

CC1CC(=O)C=C(Nc2ccc(OC(F)(F)F)cc2)C1 (configuration not stated)
EC50 [31]: 24500 nM

C=C[C@]12CN(C)[C@@H]3[C@H]4CO[C@H](C[C@H]41)[C@]1(C(=O)Nc4ccccc41)[C@@H]32 [GELSEMINE]
EC50 [32]: 590 nM
IC50 [33]: 30000 to 50000 nM
IC50 [34]: 30000 to 50000 nM
IC50 [35]: 30000 to 50000 nM
fold change (FC) [36]: 0.55
